{"source": "the kinase profiling compilation of Christmann-Franck et al. (2016)", "test_in_all_cases": "KINOMEscan competition binding", "conditions_in_all_cases": "compound 0.1 µM", "key": {"MAPK11 (human)": {"target": "MAPK11 (human) (UniProt Q15759)", "sequence (Q15759 whole entry, looked up)": "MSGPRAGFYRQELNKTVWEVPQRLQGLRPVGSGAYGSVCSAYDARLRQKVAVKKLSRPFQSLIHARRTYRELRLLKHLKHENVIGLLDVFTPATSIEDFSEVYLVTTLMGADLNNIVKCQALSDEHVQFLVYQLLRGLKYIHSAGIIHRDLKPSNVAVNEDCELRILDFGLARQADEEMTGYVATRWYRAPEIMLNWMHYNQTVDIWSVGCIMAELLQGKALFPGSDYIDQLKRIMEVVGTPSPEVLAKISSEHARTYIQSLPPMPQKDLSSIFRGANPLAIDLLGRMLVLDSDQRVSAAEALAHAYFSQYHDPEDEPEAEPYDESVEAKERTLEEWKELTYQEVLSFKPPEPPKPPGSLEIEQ"}, "MAP3K5 (human)": {"target": "MAP3K5 (human) (UniProt Q99683)"}, "CSNK2A2 (human)": {"target": "CSNK2A2 (human) (UniProt P19784)"}, "PRKG2 (human)": {"target": "PRKG2 (human) (UniProt Q13237)"}, "MAPK6 (human)": {"target": "MAPK6 (human) (UniProt Q16659)"}, "[1]": {"test_system": "EGFR (human), P00533 [746-750 del]"}, "NEK10 (human)": {"target": "NEK10 (human) (UniProt Q6ZWH5)"}, "TNK2 (human)": {"target": "TNK2 (human) (UniProt Q07912)", "sequence (Q07912 whole entry, looked up)": "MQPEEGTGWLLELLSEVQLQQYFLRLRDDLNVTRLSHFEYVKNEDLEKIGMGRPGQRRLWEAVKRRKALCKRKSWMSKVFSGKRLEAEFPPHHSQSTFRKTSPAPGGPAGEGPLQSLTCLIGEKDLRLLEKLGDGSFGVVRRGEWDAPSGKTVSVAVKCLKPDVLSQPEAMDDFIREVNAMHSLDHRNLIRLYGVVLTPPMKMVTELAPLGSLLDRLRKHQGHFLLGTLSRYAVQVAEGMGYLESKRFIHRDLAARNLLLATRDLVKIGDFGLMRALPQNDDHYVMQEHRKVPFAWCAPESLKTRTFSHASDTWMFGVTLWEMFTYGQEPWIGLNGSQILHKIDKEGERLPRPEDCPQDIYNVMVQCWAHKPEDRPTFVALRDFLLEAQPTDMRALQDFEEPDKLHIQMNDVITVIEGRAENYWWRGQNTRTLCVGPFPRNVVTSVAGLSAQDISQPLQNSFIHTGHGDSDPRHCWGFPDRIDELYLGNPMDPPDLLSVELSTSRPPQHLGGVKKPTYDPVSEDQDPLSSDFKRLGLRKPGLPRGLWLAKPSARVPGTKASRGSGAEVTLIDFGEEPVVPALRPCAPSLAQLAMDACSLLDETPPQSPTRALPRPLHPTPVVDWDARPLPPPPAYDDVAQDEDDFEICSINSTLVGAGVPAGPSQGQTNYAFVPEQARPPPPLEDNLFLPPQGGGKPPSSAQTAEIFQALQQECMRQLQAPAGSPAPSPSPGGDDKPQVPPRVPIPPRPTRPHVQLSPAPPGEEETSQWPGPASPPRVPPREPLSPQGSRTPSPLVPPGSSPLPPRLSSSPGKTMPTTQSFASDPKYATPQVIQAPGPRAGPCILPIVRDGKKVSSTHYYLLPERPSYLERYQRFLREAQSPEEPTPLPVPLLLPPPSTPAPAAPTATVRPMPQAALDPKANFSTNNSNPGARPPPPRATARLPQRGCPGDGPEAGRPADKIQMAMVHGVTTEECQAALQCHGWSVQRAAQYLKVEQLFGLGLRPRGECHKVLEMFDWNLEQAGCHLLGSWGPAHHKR"}, "MATK (human)": {"target": "MATK (human) (UniProt P42679)"}, "EPHB6 (human)": {"target": "EPHB6 (human) (UniProt O15197)"}, "[2]": {"test_system": "KIT (human), P10721 [V559D/V654A]", "sequence (P10721 whole entry V559D/V654A, looked up)": "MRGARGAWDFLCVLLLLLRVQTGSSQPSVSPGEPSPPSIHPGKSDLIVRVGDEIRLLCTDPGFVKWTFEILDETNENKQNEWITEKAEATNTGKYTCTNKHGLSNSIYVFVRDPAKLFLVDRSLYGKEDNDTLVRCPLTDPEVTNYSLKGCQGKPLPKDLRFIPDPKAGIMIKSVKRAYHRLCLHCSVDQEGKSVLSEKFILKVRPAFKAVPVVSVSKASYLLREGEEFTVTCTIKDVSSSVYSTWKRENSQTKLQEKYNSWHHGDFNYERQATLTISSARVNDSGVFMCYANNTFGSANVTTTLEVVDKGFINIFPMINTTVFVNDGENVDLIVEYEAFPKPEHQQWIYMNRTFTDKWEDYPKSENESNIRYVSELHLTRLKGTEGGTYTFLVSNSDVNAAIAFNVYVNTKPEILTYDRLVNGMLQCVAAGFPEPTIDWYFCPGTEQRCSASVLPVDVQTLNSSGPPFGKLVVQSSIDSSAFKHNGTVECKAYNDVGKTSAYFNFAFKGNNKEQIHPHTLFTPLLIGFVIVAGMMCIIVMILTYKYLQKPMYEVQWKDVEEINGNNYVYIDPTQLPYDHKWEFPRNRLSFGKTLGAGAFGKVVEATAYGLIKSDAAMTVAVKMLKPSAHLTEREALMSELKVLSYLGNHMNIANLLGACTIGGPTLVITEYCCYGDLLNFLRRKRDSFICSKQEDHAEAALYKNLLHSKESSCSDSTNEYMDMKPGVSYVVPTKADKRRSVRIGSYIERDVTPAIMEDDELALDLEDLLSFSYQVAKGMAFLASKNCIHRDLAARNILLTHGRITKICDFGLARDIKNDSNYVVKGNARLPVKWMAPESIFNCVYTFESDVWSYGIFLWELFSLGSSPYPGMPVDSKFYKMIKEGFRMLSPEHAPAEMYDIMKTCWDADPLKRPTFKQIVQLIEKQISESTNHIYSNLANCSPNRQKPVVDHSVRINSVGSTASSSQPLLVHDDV"}, "GSK3A (human)": {"target": "GSK3A (human) (UniProt P49840)"}, "MAPK9 (human)": {"target": "MAPK9 (human) (UniProt P45984)"}, "MAPK15 (human)": {"target": "MAPK15 (human) (UniProt Q8TD08)"}, "ERBB2 (human)": {"target": "ERBB2 (human) (UniProt P04626)"}, "MAP3K1 (human)": {"target": "MAP3K1 (human) (UniProt Q13233)", "sequence (Q13233 whole entry, looked up)": "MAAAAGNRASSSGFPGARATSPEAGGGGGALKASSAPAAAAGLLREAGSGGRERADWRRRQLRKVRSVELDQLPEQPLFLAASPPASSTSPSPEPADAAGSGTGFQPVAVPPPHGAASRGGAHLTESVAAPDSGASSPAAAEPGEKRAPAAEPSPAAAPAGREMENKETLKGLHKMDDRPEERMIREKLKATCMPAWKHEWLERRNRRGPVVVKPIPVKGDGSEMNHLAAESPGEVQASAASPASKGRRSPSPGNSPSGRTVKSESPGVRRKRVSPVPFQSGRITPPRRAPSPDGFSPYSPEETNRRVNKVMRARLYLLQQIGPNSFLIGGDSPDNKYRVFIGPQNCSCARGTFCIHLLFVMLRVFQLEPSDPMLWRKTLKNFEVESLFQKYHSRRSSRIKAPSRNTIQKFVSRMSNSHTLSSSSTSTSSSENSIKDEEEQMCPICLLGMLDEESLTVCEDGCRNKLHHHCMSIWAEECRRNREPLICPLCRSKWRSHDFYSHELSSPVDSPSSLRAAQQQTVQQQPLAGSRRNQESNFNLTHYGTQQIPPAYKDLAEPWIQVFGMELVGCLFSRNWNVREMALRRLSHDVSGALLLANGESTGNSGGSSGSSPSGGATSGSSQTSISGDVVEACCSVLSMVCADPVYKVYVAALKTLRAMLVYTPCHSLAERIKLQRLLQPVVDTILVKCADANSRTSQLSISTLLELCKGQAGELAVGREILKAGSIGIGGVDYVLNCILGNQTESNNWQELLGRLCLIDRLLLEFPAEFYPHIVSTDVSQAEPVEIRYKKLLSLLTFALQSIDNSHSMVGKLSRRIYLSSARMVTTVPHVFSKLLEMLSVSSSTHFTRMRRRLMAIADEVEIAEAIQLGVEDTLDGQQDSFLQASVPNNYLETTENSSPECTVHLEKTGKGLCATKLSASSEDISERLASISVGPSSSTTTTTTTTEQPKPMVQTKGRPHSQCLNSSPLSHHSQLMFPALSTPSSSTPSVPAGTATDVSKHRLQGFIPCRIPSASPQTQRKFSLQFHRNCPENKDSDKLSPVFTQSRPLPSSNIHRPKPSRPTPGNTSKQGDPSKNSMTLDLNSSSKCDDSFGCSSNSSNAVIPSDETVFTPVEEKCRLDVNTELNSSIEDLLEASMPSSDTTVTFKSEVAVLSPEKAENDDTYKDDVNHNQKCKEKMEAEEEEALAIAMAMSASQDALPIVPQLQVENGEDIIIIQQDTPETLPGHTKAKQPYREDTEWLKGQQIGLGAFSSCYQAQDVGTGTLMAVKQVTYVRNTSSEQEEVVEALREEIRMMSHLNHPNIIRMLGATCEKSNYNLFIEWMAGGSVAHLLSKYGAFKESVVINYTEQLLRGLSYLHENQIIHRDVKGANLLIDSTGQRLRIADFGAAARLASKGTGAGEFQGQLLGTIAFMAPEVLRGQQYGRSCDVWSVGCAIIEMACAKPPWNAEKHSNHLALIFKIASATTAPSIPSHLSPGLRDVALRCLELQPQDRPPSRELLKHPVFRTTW"}, "SRPK1 (human)": {"target": "SRPK1 (human) (UniProt Q96SB4)"}, "NEK1 (human)": {"target": "NEK1 (human) (UniProt Q96PY6)"}, "NTRK1 (human)": {"target": "NTRK1 (human) (UniProt P04629)"}, "CLK1 (human)": {"target": "CLK1 (human) (UniProt P49759)"}, "EPHA1 (human)": {"target": "EPHA1 (human) (UniProt P21709)"}, "[3]": {"test_system": "KIT (human), P10721 [D816H]", "sequence (P10721 whole entry D816H, looked up)": "as the sequence (P10721 whole entry V559D/V654A, looked up) above, with D559V, A654V, D816H counted along it"}, "MAP2K2 (human)": {"target": "MAP2K2 (human) (UniProt P36507)"}, "MERTK (human)": {"target": "MERTK (human) (UniProt Q12866)", "sequence (Q12866 whole entry, looked up)": "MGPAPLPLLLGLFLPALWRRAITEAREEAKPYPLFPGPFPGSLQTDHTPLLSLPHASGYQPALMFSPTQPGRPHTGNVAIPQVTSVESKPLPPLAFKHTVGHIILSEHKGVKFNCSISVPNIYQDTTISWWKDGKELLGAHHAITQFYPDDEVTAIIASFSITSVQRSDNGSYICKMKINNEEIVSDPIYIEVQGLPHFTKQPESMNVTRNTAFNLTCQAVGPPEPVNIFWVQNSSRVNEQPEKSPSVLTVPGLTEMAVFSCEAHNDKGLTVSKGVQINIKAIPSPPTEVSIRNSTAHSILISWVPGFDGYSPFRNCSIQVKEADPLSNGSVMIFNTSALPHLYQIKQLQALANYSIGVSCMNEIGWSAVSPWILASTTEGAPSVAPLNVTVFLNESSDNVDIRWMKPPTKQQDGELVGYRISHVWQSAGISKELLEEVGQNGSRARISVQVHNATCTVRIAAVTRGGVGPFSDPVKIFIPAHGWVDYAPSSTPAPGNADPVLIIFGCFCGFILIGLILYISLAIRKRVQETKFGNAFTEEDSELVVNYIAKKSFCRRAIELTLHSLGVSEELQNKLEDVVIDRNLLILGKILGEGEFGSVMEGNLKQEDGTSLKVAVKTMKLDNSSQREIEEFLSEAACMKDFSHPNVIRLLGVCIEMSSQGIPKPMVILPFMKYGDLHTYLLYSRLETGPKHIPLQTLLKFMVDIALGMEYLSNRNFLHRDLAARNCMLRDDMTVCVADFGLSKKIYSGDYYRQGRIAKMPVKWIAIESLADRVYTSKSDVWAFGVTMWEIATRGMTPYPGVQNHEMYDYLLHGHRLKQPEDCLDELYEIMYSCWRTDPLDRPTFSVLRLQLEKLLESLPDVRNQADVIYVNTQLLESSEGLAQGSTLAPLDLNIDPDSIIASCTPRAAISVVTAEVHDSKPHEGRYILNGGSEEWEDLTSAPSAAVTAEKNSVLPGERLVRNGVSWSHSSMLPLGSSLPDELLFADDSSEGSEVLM"}, "EPHB2 (human)": {"target": "EPHB2 (human) (UniProt P29323)"}, "PIK3CB (human)": {"target": "PIK3CB (human) (UniProt P42338)"}, "GAK (human)": {"target": "GAK (human) (UniProt O14976)"}, "ACVRL1 (human)": {"target": "ACVRL1 (human) (UniProt P37023)"}, "[4]": {"test_system": "ABL1 (human), P00519 [Y253F]"}, "PAK2 (human)": {"target": "PAK2 (human) (UniProt Q13177)"}, "MARK1 (human)": {"target": "MARK1 (human) (UniProt Q9P0L2)"}, "[5]": {"test_system": "EGFR (human), P00533 [A750P; 747-749 del]"}, "NLK (human)": {"target": "NLK (human) (UniProt Q9UBE8)"}, "PAK4 (human)": {"target": "PAK4 (human) (UniProt O96013)"}, "MAP3K3 (human)": {"target": "MAP3K3 (human) (UniProt Q99759)"}, "CDK16 (human)": {"target": "CDK16 (human) (UniProt Q00536)"}, "BRSK1 (human)": {"target": "BRSK1 (human) (UniProt Q8TDC3)"}, "GSG2 (human)": {"target": "GSG2 (human) (UniProt Q8TF76)"}, "PRKCH (human)": {"target": "PRKCH (human) (UniProt P24723)"}, "CDK15 (human)": {"target": "CDK15 (human) (UniProt Q96Q40)"}}, "data": [{"smiles": "CCc1ccc(C(=O)Nc2cc(CN3CCN(C)CC3)cc(C(F)(F)F)c2)cc1C#Cc1cnc2ccnn2c1", "values": [{"measurement": "kinase still bound, per cent of control", "setting": "MAPK11 (human)", "value": 100, "unit": "%"}, {"measurement": "kinase still bound, per cent of control", "setting": "MAP3K5 (human)", "value": 100, "unit": "%"}, {"measurement": "kinase still bound, per cent of control", "setting": "CSNK2A2 (human)", "value": 100, "unit": "%"}, {"measurement": "kinase still bound, per cent of control", "setting": "PRKG2 (human)", "value": 100, "unit": "%"}, {"measurement": "kinase still bound, per cent of control", "setting": "MAPK6 (human)", "value": 98, "unit": "%"}, {"measurement": "kinase still bound, per cent of control", "setting": "[1]", "value": 100, "unit": "%"}, {"measurement": "kinase still bound, per cent of control", "setting": "NEK10 (human)", "value": 100, "unit": "%"}, {"measurement": "kinase still bound, per cent of control", "setting": "TNK2 (human)", "value": 96, "unit": "%"}, {"measurement": "kinase still bound, per cent of control", "setting": "MATK (human)", "value": 100, "unit": "%"}, {"measurement": "kinase still bound, per cent of control", "setting": "EPHB6 (human)", "value": 100, "unit": "%"}, {"measurement": "kinase still bound, per cent of control", "setting": "[2]", "value": 100, "unit": "%"}, {"measurement": "kinase still bound, per cent of control", "setting": "GSK3A (human)", "value": 100, "unit": "%"}, {"measurement": "kinase still bound, per cent of control", "setting": "MAPK9 (human)", "value": 100, "unit": "%"}, {"measurement": "kinase still bound, per cent of control", "setting": "MAPK15 (human)", "value": 100, "unit": "%"}, {"measurement": "kinase still bound, per cent of control", "setting": "ERBB2 (human)", "value": 61, "unit": "%"}, {"measurement": "kinase still bound, per cent of control", "setting": "MAP3K1 (human)", "value": 100, "unit": "%"}, {"measurement": "kinase still bound, per cent of control", "setting": "SRPK1 (human)", "value": 100, "unit": "%"}, {"measurement": "kinase still bound, per cent of control", "setting": "NEK1 (human)", "value": 93, "unit": "%"}, {"measurement": "kinase still bound, per cent of control", "setting": "NTRK1 (human)", "value": 75, "unit": "%"}, {"measurement": "kinase still bound, per cent of control", "setting": "CLK1 (human)", "value": 71, "unit": "%"}, {"measurement": "kinase still bound, per cent of control", "setting": "EPHA1 (human)", "value": 86, "unit": "%"}, {"measurement": "kinase still bound, per cent of control", "setting": "[3]", "value": 81, "unit": "%"}, {"measurement": "kinase still bound, per cent of control", "setting": "MAP2K2 (human)", "value": 100, "unit": "%"}, {"measurement": "kinase still bound, per cent of control", "setting": "MERTK (human)", "value": 52, "unit": "%"}, {"measurement": "kinase still bound, per cent of control", "setting": "EPHB2 (human)", "value": 100, "unit": "%"}, {"measurement": "kinase still bound, per cent of control", "setting": "PIK3CB (human)", "value": 100, "unit": "%"}, {"measurement": "kinase still bound, per cent of control", "setting": "GAK (human)", "value": 95, "unit": "%"}, {"measurement": "kinase still bound, per cent of control", "setting": "ACVRL1 (human)", "value": 100, "unit": "%"}, {"measurement": "kinase still bound, per cent of control", "setting": "[4]", "value": 100, "unit": "%"}, {"measurement": "kinase still bound, per cent of control", "setting": "PAK2 (human)", "value": 76, "unit": "%"}, {"measurement": "kinase still bound, per cent of control", "setting": "MARK1 (human)", "value": 74, "unit": "%"}, {"measurement": "kinase still bound, per cent of control", "setting": "[5]", "value": 90, "unit": "%"}, {"measurement": "kinase still bound, per cent of control", "setting": "NLK (human)", "value": 45, "unit": "%"}, {"measurement": "kinase still bound, per cent of control", "setting": "PAK4 (human)", "value": 80, "unit": "%"}, {"measurement": "kinase still bound, per cent of control", "setting": "MAP3K3 (human)", "value": 100, "unit": "%"}, {"measurement": "kinase still bound, per cent of control", "setting": "CDK16 (human)", "value": 100, "unit": "%"}, {"measurement": "kinase still bound, per cent of control", "setting": "BRSK1 (human)", "value": 100, "unit": "%"}, {"measurement": "kinase still bound, per cent of control", "setting": "GSG2 (human)", "value": 75, "unit": "%"}, {"measurement": "kinase still bound, per cent of control", "setting": "PRKCH (human)", "value": 100, "unit": "%"}, {"measurement": "kinase still bound, per cent of control", "setting": "CDK15 (human)", "value": 100, "unit": "%"}]}]}
